Results from patent publication US20250215029A1 (Recludix Pharma, Inc., priority 2022, published 2025).
Read-outs that look alike come from different tables or passages of the source.

Molecular target: T1, pY641-STAT6 in PBMC (Homo sapiens, UniProt P42226)
T1 construct: Cryopreserved Peripheral Blood Mononuclear Cells (PBMC) are from AllCells; host or cells: cryopreserved PBMC
T1 sequence (P42226 1-847): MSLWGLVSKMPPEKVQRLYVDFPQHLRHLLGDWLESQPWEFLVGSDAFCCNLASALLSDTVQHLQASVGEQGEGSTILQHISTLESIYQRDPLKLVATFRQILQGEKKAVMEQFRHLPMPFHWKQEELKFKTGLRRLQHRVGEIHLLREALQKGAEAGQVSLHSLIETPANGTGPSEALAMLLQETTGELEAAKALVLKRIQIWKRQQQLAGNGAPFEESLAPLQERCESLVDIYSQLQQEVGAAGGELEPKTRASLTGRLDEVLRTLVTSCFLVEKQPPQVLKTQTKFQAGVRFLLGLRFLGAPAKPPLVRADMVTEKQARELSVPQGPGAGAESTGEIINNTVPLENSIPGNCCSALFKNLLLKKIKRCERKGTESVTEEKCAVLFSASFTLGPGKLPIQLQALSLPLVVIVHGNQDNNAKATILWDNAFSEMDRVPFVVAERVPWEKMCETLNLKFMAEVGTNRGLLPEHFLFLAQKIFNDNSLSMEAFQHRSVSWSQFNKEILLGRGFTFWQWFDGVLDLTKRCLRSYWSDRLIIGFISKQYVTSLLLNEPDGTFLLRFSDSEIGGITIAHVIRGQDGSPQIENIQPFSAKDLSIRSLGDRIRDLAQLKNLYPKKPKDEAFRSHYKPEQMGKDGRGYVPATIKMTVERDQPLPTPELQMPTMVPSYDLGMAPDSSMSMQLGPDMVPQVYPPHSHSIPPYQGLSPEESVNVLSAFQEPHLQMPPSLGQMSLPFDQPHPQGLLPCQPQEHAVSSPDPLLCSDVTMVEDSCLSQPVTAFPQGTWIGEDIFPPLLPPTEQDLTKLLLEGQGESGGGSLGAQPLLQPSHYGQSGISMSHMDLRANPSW
Experiment: MSD-pSTAT-PBMC Assay (pSTAT6, IL-4 stimulated)
Type: cell-based
Details: compound 3 hrs, then 1 ng/mL IL-4 for 10 min, Table 115
How it was run: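 Inhibition of cytokine-induced STAT phosphorylation was measured in recovered human PBMC after 3 hrs compound exposure and a 10 min IL-4 (1 ng/mL) or IL-6 (10 ng/mL) challenge. MSD detection of pY641-STAT6 or pY705-STAT3 yielded IC50 values.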

| SMILES | IC50 (STAT6, PBMC) | IC50 (PBMC, read-out: STAT6) |
| --- | --- | --- |
| COCCOC(=O)[C@H](COC)NP(=O)(Oc1ccccc1)[C@H](F)c1ccc2sc(C(=O)N[C@H]3CCC[C@H]4CC[C@@H](C(=O)N5C[C@H](c6ccccc6)[C@@H](C#N)C56CC6)N4C3=O)cc2c1 (stereo partly drawn) [Compound 348, 2-methoxyethyl N-(((S)-(2-(((3S,6S,9aS)-3-((6S,7R)-7-cyano-6-phenyl-4-azaspiro[2.4]heptane-4-carbonyl)-5-oxooctahydro-1H-pyrrolo[1,2-a]azepin-6-yl)carbamoyl)benzo [b]thiophen-5-yl)fluoromethyl) (phenoxy)phosphoryl)-O-methyl-L-serinate] | < 100 nM | – |
| CCCOC(=O)[C@H](C)NP(=O)(Oc1ccccc1)[C@H](F)c1ccc2sc(C(=O)N[C@H]3C[C@@H](C)C[C@H]4CC[C@@H](C(=O)N5C[C@H](c6ccccc6)[C@@H](C#N)C56CC6)N4C3=O)cc2c1 (stereo partly drawn) [Compound 349, propyl (((S)-(2-(((3S,6S,8R,9aR)-3-((6S,7R)-7-cyano-6-phenyl-4-azaspiro[2.4]heptane-4-carbonyl)-8-methyl-5-oxooctahydro-1H-pyrrolo[1,2-a]azepin-6-yl)carbamoyl)benzo [b]thiophen-5-yl)fluoromethyl) (phenoxy)phosphoryl)-L-alaninate] | < 100 nM | – |
| C[C@H](NP(=O)(Oc1ccccc1)[C@H](F)c1ccc2sc(C(=O)N[C@H]3CCC[C@H]4CC[C@@H](C(=O)N5C[C@H](c6ccccc6)[C@@H](C#N)C56CC6)N4C3=O)cc2c1)C(=O)OC1CC1 (stereo partly drawn) [Compound 350, cyclopropyl (((S)-(2-(((3S,6S,9aS)-3-((6S,7R)-7-cyano-6-phenyl-4-azaspiro[2.4]heptane-4-carbonyl)-5-oxooctahydro-1H-pyrrolo[1,2-a]azepin-6-yl)carbamoyl)benzo [b]thiophen-5-yl)fluoromethyl) (phenoxy)phosphoryl)-L-alaninate] | < 100 nM | – |
| COCCOC(=O)[C@H](C)NP(=O)(Oc1ccccc1)[C@H](F)c1ccc2sc(C(=O)N[C@H]3CCC[C@H]4CC[C@@H](C(=O)N5C[C@H](c6ccccc6)[C@@H](C#N)C56CC6)N4C3=O)cc2c1 (stereo partly drawn) [Compound 351, 2-methoxyethyl (((S)-(2-(((3S,6S,9aS)-3-((6S,7R)-7-cyano-6-phenyl-4-azaspiro[2.4]heptane-4-carbonyl)-5-oxooctahydro-1H-pyrrolo[1,2-a]azepin-6-yl)carbamoyl)benzo [b]thiophen-5-yl)fluoromethyl) (phenoxy)phosphoryl)-L-alaninate] | < 100 nM | – |
| CCCOC(=O)[C@H](C)NP(=O)(Oc1ccccc1)[C@H](F)c1ccc2sc(C(=O)N[C@H]3C[C@H](C)C[C@H]4CC[C@@H](C(=O)N5C[C@H](c6ccccc6)[C@@H](C#N)C56CC6)N4C3=O)cc2c1 (stereo partly drawn) [Compound 352, propyl (((S)-(2-(((3S,6S,8S,9aR)-3-((6S,7R)-7-cyano-6-phenyl-4-azaspiro[2.4]heptane-4-carbonyl)-8-methyl-5-oxooctahydro-1H-pyrrolo[1,2-a]azepin-6-yl)carbamoyl)benzo [b]thiophen-5-yl)fluoromethyl) (phenoxy)phosphoryl)-L-alaninate] | < 100 nM | – |
| CCCOC(=O)[C@H](C)NP(=O)(Oc1ccccc1)[C@@H](F)c1ccc2sc(C(=O)N[C@H]3C[C@@H](C)C[C@H]4CC[C@@H](C(=O)N5C[C@@H](c6cccnc6)CC56CC6)N4C3=O)cc2c1 (stereo partly drawn) [Compound 353, propyl (((R)-fluoro(2-(((3S,6S,8R,9aR)-8-methyl-5-oxo-3-((R)-6-(pyridin-3-yl)-4-azaspiro[2.4]heptane-4-carbonyl)octahydro-1H-pyrrolo[1,2-a]azepin-6-yl)carbamoyl)benzo [b]thiophen-5-yl)methyl)(phenoxy)phosphoryl)-L-alaninate] | < 100 nM | – |
| C[C@H](NP(=O)(Oc1ccccc1)[C@@H](F)c1ccc2sc(C(=O)N[C@H]3CCC[C@H]4CC[C@@H](C(=O)N5C[C@@H](c6cccnc6)CC56CC6)N4C3=O)cc2c1)C(=O)OCc1nnnn1C (stereo partly drawn) [Compound 356, (1-methyl-1H-tetrazol-5-yl)methyl (((R)-fluoro(2-(((3S,6S,9aS)-5-oxo-3-((R)-6-(pyridin-3-yl)-4-azaspiro[2.4]heptane-4-carbonyl)octahydro-1H-pyrrolo[1,2-a]azepin-6-yl)carbamoyl)benzo [b]thiophen-5-yl)methyl)(phenoxy)phosphoryl)-L-alaninate] | 100 to 1000 nM | – |
| CCCOC(=O)[C@H](C)NP(=O)(Oc1cccc(OCCOC)c1)[C@@H](F)c1ccc2sc(C(=O)N[C@H]3CCC[C@H]4CC[C@@H](C(=O)N5C[C@@H](c6cccnc6)CC56CC6)N4C3=O)cc2c1 (stereo partly drawn) [Compound 357, propyl (((R)-fluoro(2-(((3S,6S,9aS)-5-oxo-3-((R)-6-(pyridin-3-yl)-4-azaspiro[2.4]heptane-4-carbonyl)octahydro-1H-pyrrolo[1,2-a]azepin-6-yl)carbamoyl)benzo [b]thiophen-5-yl)methyl)(3-(2-methoxyethoxy)phenoxy)phosphoryl)-L-alaninate] | < 100 nM | – |
| COC(C)(C)COC(=O)[C@H](C)NP(=O)(Oc1ccccc1)[C@@H](F)c1ccc2sc(C(=O)N[C@H]3CCCC[C@H]4CC[C@@H](C(=O)N5C[C@@H](c6cccnc6)CC56CC6)N4C3=O)cc2c1 (stereo partly drawn) [Compound 358, 2-methoxy-2-methylpropyl (((R)-fluoro(2-(((3S,6S,10aS)-5-oxo-3-((R)-6-(pyridin-3-yl)-4-azaspiro[2.4]heptane-4-carbonyl)decahydropyrrolo[1,2-a]azocin-6-yl)carbamoyl)benzo [b]thiophen-5-yl)methyl)(phenoxy)phosphoryl)-L-alaninate] | < 100 nM | – |
| CCCOC(=O)[C@H](C)NP(=O)(Oc1c(C)cccc1C)[C@H](F)c1ccc2sc(C(=O)N[C@H]3CCC[C@H]4CC[C@@H](C(=O)N5C[C@@H](c6cccnc6)CC56CC6)N4C3=O)cc2c1 (stereo partly drawn) [Compound 359, propyl ((2,6-dimethylphenoxy) ((S)-fluoro(2-(((3S,6S,9aS)-5-oxo-3-((R)-6-(pyridin-3-yl)-4-azaspiro[2.4]heptane-4-carbonyl)octahydro-1H-pyrrolo[1,2-a]azepin-6-yl)carbamoyl)benzo [b]thiophen-5-yl)methyl)phosphoryl)-L-alaninate] | < 100 nM | – |
| C[C@H](NP(=O)(Oc1ccccc1)[C@@H](F)c1ccc2sc(C(=O)N[C@H]3CCCC[C@H]4CC[C@@H](C(=O)N5C[C@@H](c6cccnc6)CC56CC6)N4C3=O)cc2c1)C(=O)OCC1CCOCC1 (stereo partly drawn) [Compound 360, (tetrahydro-2H-pyran-4-yl)methyl (((R)-fluoro(2-(((3S,6S,10aS)-5-oxo-3-((R)-6-(pyridin-3-yl)-4-azaspiro[2.4]heptane-4-carbonyl)decahydropyrrolo[1,2-a]azocin-6-yl)carbamoyl)benzo [b]thiophen-5-yl)methyl)(phenoxy)phosphoryl)-L-alaninate] | < 100 nM | – |
| COCCOC(=O)[C@H](C)NP(=O)(Oc1ccccc1)[C@@H](F)c1ccc2sc(C(=O)N[C@H]3CCC[C@H]4CC[C@@H](C(=O)N5C[C@@H](c6ccccc6)[C@H](C#N)C56CC6)N4C3=O)cc2c1 (stereo partly drawn) [Compound 361, 2-methoxyethyl (((R)-(2-(((3S,6S,9aS)-3-((6R,7S)-7-cyano-6-phenyl-4-azaspiro[2.4]heptane-4-carbonyl)-5-oxooctahydro-1H-pyrrolo[1,2-a]azepin-6-yl)carbamoyl)benzo [b]thiophen-5-yl)fluoromethyl) (phenoxy)phosphoryl)-L-alaninate] | < 100 nM | – |
| CCCOC(=O)[C@H](C)NP(=O)(Oc1ccccc1)[C@@H](F)c1ccc2sc(C(=O)N[C@H]3CCCC[C@H]4CC[C@@H](C(=O)N5C[C@H](c6cccnc6)[C@@H](C#N)C56CC6)N4C3=O)cc2c1 (stereo partly drawn) [Compound 364] | – | < 100 nM |
| CCCOC(=O)[C@H](C)NP(=O)(Oc1ccccc1)[C@@H](F)c1ccc2sc(C(=O)N[C@H]3CCCC[C@H]4CC[C@@H](C(=O)N5C[C@H](c6cccnc6)[C@@H](C#N)C56CC6)N4C3=O)cc2c1 (stereo partly drawn) [Compound 365] | – | < 100 nM |
| C[C@H](NP(=O)(Oc1ccccc1)[C@@H](F)c1ccc2sc(C(=O)N[C@H]3CCC[C@H]4CC[C@@H](C(=O)N5C[C@@H](c6cccnc6)CC56CC6)N4C3=O)cc2c1)C(=O)OCc1cccnn1 (stereo partly drawn) [Compound 366, pyridazin-3-ylmethyl (((R)-fluoro(2-(((3S,6S,9aS)-5-oxo-3-((R)-6-(pyridin-3-yl)-4-azaspiro[2.4]heptane-4-carbonyl)octahydro-1H-pyrrolo[1,2-a]azepin-6-yl)carbamoyl)benzo [b]thiophen-5-yl)methyl)(phenoxy)phosphoryl)-L-alaninate] | 100 to 1000 nM | – |
